Laboratory results: patent US20040171089A1, “High-throughput screening assay for identifying substances capable of modulating cell survival and/or proliferation” (priority 2001, published 2004)
“Also recorded” adds a separate entry of the source.

Legend:
[1] = test system: microvascular endothelial cells; conditions: equimolar, 10 micromolar, GB0007842.8, WO 0174359; cited from earlier work
[2] = test system: human primary microvascular endothelial cells; assay: Fura-2 calcium imaging, microvascular endothelial cells; format: cell-based; conditions: microvascular endothelial cells; FIG. 2b: IPAG 10 μM, rimcazole 10-30 μM, (+)-pentazocine 10-30 μM
Method: Human adult dermal microvascular endothelial cells (catalogue number CC-2543; cells had been characterised by tests for cell type markers: positive for acetylated LDL uptake, positive for factor VIII related antigen, negative for alpha smooth muscle actin)
(§1) For calcium imaging experiments cells were plated onto poly-L-lysine coated coverslips (13 mm). Single cell imaging was performed utilizing a MiraCal Imaging facility (Life Science Resources, Cambridge, U.K.) with a Nikon Diaphot-TMD inverted epifluorescence microscope equipped with a ×40 oil immersion objective and Sutter filter wheel. The imager was equipped with a Lambert intensifier 1187 (Life Sciences Resources) providing a ×30 enhancement of the fluorescent signal, thus limiting phototoxicity.
(§2) Fura-2 acetoxymethyl ester (fura-2 AM) incubations with the cells were performed at 37° C. in a medium containing (in mM): 120 NaCl, 3.5 KCl, 0.4 KH2PO4, 5 NaHCO3, 1.2 Na2SO4, 15 glucose, 1.2 MgCl2, 1 CaCl2, and 20 TES [N-tris(hydroxymethyl) methyl-2-aminoethane sulphonic acid] pH adjusted to 7.4 with NaOH. Typically cells were incubated in 3 μM fura-2 AM for 25 min., which permitted sufficient accumulation of free fura-2 in the cell cytoplasm. Cells were then illuminated alternately at 340 and 380 nm with the emitted 505 nm light being detected by a photomultiplier. Free fura emits maximally when excited at 380 nm, whilst the calcium bound fura has a maximal emission when excited at 340 nm. Thus the ratio of emission when alternately excited at 340/380 nm is a measure of the calcium concentration in equilibrium with the chelator. Changes of intracellular calcium were quantified as the percentage increase of the fluorescent ratio (determined at ˜505 nm) obtained by exciting the test cells alternatively at 340 nm (optimal for calcium bound dye) and 380 nm.

MDA MB 468 cells [3] = assay: Fura-2 calcium imaging, MDA MB 468 cells; format: cell-based, human; conditions: for % increase of cytosolic calcium (peak 340/380 nm fura-2 ratio): MDA 468 cells; for effect on cytosolic calcium levels (in words): MDA MB 468 cells, FIG. 2a: IPAG 1-10 μM, rimcazole 10-30 μM, (+)-SKF 10,047 10 μM, (+)-pentazocine 10-30 μM, ibogaine 10-50 μM
Method: Human mammary carcinoma (MDA MB 468) cells were obtained from ATCC, Manassas, Va., USA; catalogue number HTB-132; cells were grown in accordance with the manufacturer's instructions.
as §1, §2

MDA MB 468 cells [4] = assay: MTS cell viability/proliferation assay, MDA MB 468 cells; format: cell-based, human; conditions: MDA 468 cells; 1-10 μM
Method: (§3) This was carried out using an MTS assay (reagents from Promega Corporation, Madison Wis., USA) which is a modification of the MTT assay (as described in Jacobson et al, 1994 EMBO J Vol 13 pp1899-1910). The assay depends on conversion of the MTS tetrazolium compound to a coloured formazan product in metabolically active cells; it is therefore an assay of viable cell number. A decline in values implies cell killing as long as cell disappearance by apoptosis in untreated cell populations is absent or negligible (as with most healthy primary cell populations).
(§4) Cells were seeded in the range 1.5×10^5-1.8×10^5 cells per ml of culture medium in 96 well microtitre plates and allowed to attach in a humidifed atmosphere of 5% CO2 in air at 37 deg C. Drugs were added 18-24 hours later and cell viability/proliferation measured at time intervals up to 48-72 hours post-drug addition when the experiment was terminated. Mean (±SE) values at each time point were obtained from wells in triplicate.
(§5) Cell viability was measured as follows: 20 μl of MTS solution (Promega) was added to wells and incubated at 37 deg C. for 3 hours during which time a coloured formazan product is generated in viable cells. […] Viable cell number was then measured by reading absorbance at 490 nm in a Dynex microtitre plate reader. […]

[5] = test system: sigma-1 compared to sigma-2 sites; conditions: Abou-Gharbia et al 1993; cited from earlier work
phospholipase C [6] = assay: GFP-PH PLCdelta 1 relocalisation (PLC activation) in MDA MB 468 cells; format: cell-based, human; conditions: for relocalisation of GFP-PH PLC delta 1 from membrane to cytosol: 100 μM, approximately 10 minutes, DMEM with 10% fetal bovine serum
Text: The inventors introduced a recombinant plasmid vector encoding a hybrid protein comprised of the pleckstrin homology (PH) domain of phospholipase C (PLC) delta 1 fused green fluorescent protein (GFP) (GFP-PH PLCdelta 1) into MDA MB 468 mammary carcinoma cells. A standard transfection method (Fugene-6—Roche) was used. […] Cells were maintained in DMEM with 10% fetal bovine serum at 37 deg C. in 5% CO2 before and during exposure to sigma ligands which were present at a range of concentrations. Effects on the GFP-PH PLCdelta 1 protein were studied in two ways: by time lapse microscopy (using a Leica inverted fluorescence microscope and a Hammamatsu Orca charge-coupled device camera, linked to an Improvision Open Lab image processing workstation). This enabled the time course of effects to be determined. […] Control cell populations received drug vehicle alone and were analysed at the same time points.
GFP-PH PLC delta 1—expressing MDA MB 468 cells were exposed to sigma antagonists in 1 mM and 0 mM (nominally calcium-free) buffer (as used for the calcium imaging experiments, described above) and monitored by time lapse imaging as above.

adult dermal fibroblasts = assay: MTS cell viability/proliferation assay, adult dermal fibroblasts; format: cell-based, human; conditions: 1-10 μM
Method: as §3, §4, §5

phospholipase C [7] = assay: Quantitative HPLC assay of inositol phosphates (IP3 levels) in MDA MB 468 cells; format: cell-based, human; conditions: [3H] inositol labelled cells
Text: The PH domain of PLC delta 1 has a higher affinity for the phosphoinositide IP3 compared to PIP2. IP3 is produced from PIP2 in response to activation of PLC. Since PIP2 is membrane-bound whereas IP3 is cytosolic, the activation of PLC can be visualised in living cells by the relocalisation of GFP-PH PLC delta 1 from membrane to cytosol. A proviso to this interpretation is that, in conditions where PIP2 levels decline relative to IP3, the net effect would be relocalisation of GFP-PH PLC delta 1 from membrane to cytosol. Thus, to exclude this possibility, quantitative phospholipid assays were performed. (In this analysis, cells were labelled with [^3H] inositol in inositol-free DMEM (In Vitrogen—Gibco) with dialysed FBS for 48 hours before exposure to sigma ligands. Cells were then lysed and subjected to quantitative HPLC assay). These assays confirmed that IP3 levels had risen in cells exposed to sigma antagonists (IP3 levels had risen to 240% and 166% of the level prior to provision of the test substance in response to IPAG and rimcazole respectively) but had not risen in cells exposed to sigma-1 or sigma-2 agonists. This confirmed activation of PLC by sigma antagonists.

[8] = test system: microvascular endothelial cells; assay: MTS cell viability/proliferation assay, microvascular endothelial cells; format: cell-based, human; conditions: 1-10 μM
Method: as §3, §4, §5

[9] = test system: human prostate epithelial cells; assay: MTS cell viability/proliferation assay, prostate epithelial cells; format: cell-based; conditions: 1-10 μM
Method: as §3, §4, §5

mammary epithelial cells = assay: MTS cell viability/proliferation assay, mammary epithelial cells; format: cell-based, human; conditions: 1-10 μM
Method: Human mammary epithelial cells (catalogue number CC-2551; stain positive for cytokeratins 14, 18 and 19)
as §3
as §4, with “Mean (±SE) values at each time point were obtained from wells in triplicate.” left out
as §5

Q: What does the source list for `CC(C)=CCN1CCC2(C)c3cc(O)ccc3CC1C2C` (single isomer, unassigned; (+)) [(+)-pentazocine]?
A: prevention of rimcazole- and IPAG-induced death and cytostasis [1]: completely prevented; increase in cytosolic calcium [2]: little or no effect; % increase of cytosolic calcium (peak 340/380 nm fura-2 ratio) (MDA MB 468 cells [3]; 10 μM): 5±7%; % increase of cytosolic calcium (peak 340/380 nm fura-2 ratio) (MDA MB 468 cells [3]; 30 μM): −7±6%; effect on cytosolic calcium levels (in words) (MDA MB 468 cells [3]): little or no rise; also recorded: little or no effect

Q: Which results are given for `C[C@@H]1CN(CCCn2c3ccccc3c3ccccc32)C[C@H](C)N1` [rimcazole]?
A: Cytotoxicity (MDA MB 468 cells [4]): cytotoxic; selectivity for sigma-1 compared to sigma-2 sites [5]: approximately 5 fold; relocalisation of GFP-PH PLC delta 1 from membrane to cytosol (phospholipase C [6]): pronounced relocalisation; localisation of GFP-PH PLC delta 1 (phospholipase C [6]; nominally calcium-free buffer (0 mM calcium)): remained membrane-localised; Cytotoxicity (adult dermal fibroblasts): not cytotoxic; IP3 levels, % of the level prior to provision of the test substance (phospholipase C [7]): 166%; Cytotoxicity [8]: cytotoxic; Cytotoxicity [9]: not cytotoxic; Cytotoxicity (mammary epithelial cells): not cytotoxic; % increase of cytosolic calcium (peak 340/380 nm fura-2 ratio) (MDA MB 468 cells [3]; 30 μM): 92±8%; effect on cytosolic calcium levels (in words) (MDA MB 468 cells [3]): increase cytosolic calcium levels

Q: What does the source list for (+)-SKF 10,047?
A: effect on cytosolic calcium levels (in words) (MDA MB 468 cells [3]): little or no effect; effect on cytosolic calcium levels (in words) (MDA MB 468 cells [3]; listed as (+)-SKF-10,047): little or no rise

Q: With ibogaine as the compound, how does the “relocalisation of GFP-PH PLC delta 1 from membrane to cytosol” value (phospholipase C [6]) read?
A: failed to produce this effect

Q: What about the “effect on cytosolic calcium levels (in words)” value (MDA MB 468 cells [3]) of the same compound?
A: little or no rise; also recorded: fails to induce a significant rise
